Laboratory results from US5084455A, “Novel indole carboxamides” (Roussel Uclaf, priority 1985, dated 1992).
Where two headings read alike, the source gives them in different places.

How the values were obtained:
[1] = biological target: T1, beta2-adrenergic receptors (Rattus norvegicus, UniProt P10608); experiment: Affinity for beta2-adrenergic receptors ([3H]dihydroalprenolol binding, cerebella); conditions: relative to propanolol, [3H]dihydroalprenolol 10^-9 M
T1 construct: The cerebella removed from the brains of male rats weighing 150 g on average were homogenized; from tissue; host or cells: rat cerebellum, crude membrane fraction
Protocol: (§1) The technique was modelled on that of Mohler et al [Science, Vol. 198, p. 849-851 (1977)]. The cerebella removed from the brains of male rats weighing 150 g on average were homogenized in 90 ml of 0.32M sucrose and after centrifugation of the homogenized mixture at 1,000 g for 20 minutes at 0° C., the supernatant was centrifuged at 30,000 g for 15 minutes at 0° to +4° C. The pellet was suspended in 120 ml of 50 mM Tris-HCl buffer pH 7.7, and centrifuged at 30,000 g for 15 minutes at 0° to +4° C. The new pellet was suspended in 480 ml of 50 mM Krebs Tris-HCl buffer pH 7.7. 2 ml of suspension were then incubated for 10 minutes at 37° C. in the presence of [^3 H]dihydroalprenolol at a concentration of 10^-9 M, i) alone, ii) with increasing concentrations of the test product or iii) to determine the non-specific binding, with non-radio active propranolol at a concentration of 10^-5 M. The incubated suspensions were filtered on Whatman GF/C, and the filters were washed three times with 5 ml of Krebs Tris-HCl buffer pH 7.7 at 0° C.
The radioactivity of the filters was measured by liquid scintillation. The affinity of the test product for beta2 -adrenergic receptors was given relative to propanolol as the reference product.
(§2) CD=concentration of propanolol inhibiting 50% of the specific binding of [^3 H]dihydroalprenolol.
CX=concentration of the test product inhibiting 50% of the specific binding of [^3 H]dihydroalprenolol.
The relative affinity is given by the relation ARL=100 CD/CX

[2] = test system: mice; experiment: Study of the acute toxicity; type: in vivo; conditions: oral
Protocol: The lethal doses LD50 of the different compounds tested were evaluated after administration orally to mice. The maximum dose not causing any mortality in 8 days was called the LD0 and the following results were obtained.

[3] = test system: Rat caudal arteries; experiment: Test of calcium-antagonistic activity in vitro (K+ depolarized caudal arteries); type: cell-based; conditions: 100 mM K+, 37° C., read-out: IC50, inhibition of the contraction due to K+ ions
Protocol: Calcium chloride was added in a volume of 250 μl to obtain a series of increasing concentrations of Ca^2+ ions ranging from 0.1 to 3.0 mM. The contractions of the arteries were recorded and a control series were thus established. The operation was repeated with the series of CA^2+ ions every 15 minutes and the preparation was washed four times after each series. When a stable response was obtained, the operation with the series of CA^2+ ions was performed in the presence of different concentrations of the test product, until a stable response was obtained.
The contractions of the arteries depend on the entry of Ca^2+ ions into the cells of the smooth muscles, and were caused by the depolarization of the smooth muscle by the K^+ ions and by the action of the noradrenaline released at presynaptic level. By starting the operation again with arteries denervated by the action of 6-OH-dopamine, the specific action due to noradrenaline was eliminated.

[4] = biological target: T2, beta1-adrenergic receptors (Rattus norvegicus, UniProt P18090); experiment: Affinity for beta1-adrenergic receptors ([3H]dihydroalprenolol binding, brain cortex); conditions: relative to propanolol, [3H]dihydroalprenolol 10^-9 M
T2 construct: 10 cortexes removed from the brains of male rats weighing 150 g on average were homogenized; from tissue; host or cells: rat brain cortex, crude membrane fraction
Protocol: as §1, with “The technique is modelled on” for “The technique was modelled on”, “et al [Science., Vol. 198,” for “et al [Science, Vol. 198,”, “849-851 (1977)]. 10 cortexes removed from” for “849-851 (1977)]. The cerebella removed from”, “ml of the suspension were” for “ml of suspension were”, “of [^3 H] dihydroalprenolol at a” for “of [^3 H]dihydroalprenolol at a”, “binding, with non-radioactive propanolol at a” for “binding, with non-radio active propranolol at a”
The radioactivity of the filters was measured by liquid scintillation. The affinity of the test product for beta1 -adrenergic receptors is given relative to propanolol as the reference product.
as §2
CX=concentration of the test product inhibiting 50% of the specific binding of […].
The relative affinity is given by the relation [formula]

[5] = test system: disturbances of the cardiac rhythm; experiment: Anti-arrhythmic action in the rat (aconitine perfusion); type: in vivo, male rats
Protocol: Male rats weighing 300-350 g were anesthetized intra-peritoneally with 1.20 g/kg of urethane, then tracheotomized and submitted to artificial respiration (40-50 breaths of 3 ml/minute). Needles were implanted subcutaneously so as to record the electro-cardiogram of the rats on the DII derivation signal. The products under test were administered intravenously or orally.
Five minutes after the administration of the product intravenously or 1 hour after administration orally, the jugular vein of the rats was perfused with 10 μg/minute from 0.2 ml of a solution of aconitine, and the time of appearance of disturbances of the cardiac rhythm was noted, (10 μg of aconitine corresponding to a perfusion of 0.2 ml of solution). The results are expressed as a percentage of the extension of the time of appearance of the disturbances of the cardiac rhythm as compared with controls, and as a function of the dose of the product under test.

[6] = test system: arterial blood pressure; experiment: Hypotensive activity on anaesthetized normotensive rats; type: in vivo, Sprague-Dawley male rats; conditions: 10 mg/kg, jugular vein injection
Protocol: Sprague-Dawley male rats (CR) were anaesthetized intraperitoneally with pentabarbital sodium (60 mg/kg) and a jugular vein was catheterized for the injection of the product, and a cartoid artery was catheterized for recording the arterial blood pressure. The test product was dissolved in 10% ethanol and then injected in a volume of 1 ml/kg.

[7] = iv, read-out: Percentage extension of the time of appearance of disturbances of the cardiac rhythm
[8] = read-out: Percentage of prolongation in the time

T2 sequence (P18090 whole entry): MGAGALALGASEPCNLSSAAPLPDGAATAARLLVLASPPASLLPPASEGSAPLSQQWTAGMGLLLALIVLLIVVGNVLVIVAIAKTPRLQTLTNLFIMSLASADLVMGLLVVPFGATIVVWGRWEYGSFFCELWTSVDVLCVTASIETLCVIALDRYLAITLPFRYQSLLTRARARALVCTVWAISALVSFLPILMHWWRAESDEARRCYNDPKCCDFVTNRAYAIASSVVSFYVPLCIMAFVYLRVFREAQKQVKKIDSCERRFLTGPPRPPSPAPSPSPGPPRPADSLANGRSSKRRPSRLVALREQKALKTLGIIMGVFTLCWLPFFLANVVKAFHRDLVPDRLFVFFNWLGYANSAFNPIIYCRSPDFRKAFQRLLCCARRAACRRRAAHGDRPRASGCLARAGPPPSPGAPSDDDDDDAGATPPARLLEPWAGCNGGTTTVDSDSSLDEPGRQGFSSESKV
T1 sequence (P10608 whole entry): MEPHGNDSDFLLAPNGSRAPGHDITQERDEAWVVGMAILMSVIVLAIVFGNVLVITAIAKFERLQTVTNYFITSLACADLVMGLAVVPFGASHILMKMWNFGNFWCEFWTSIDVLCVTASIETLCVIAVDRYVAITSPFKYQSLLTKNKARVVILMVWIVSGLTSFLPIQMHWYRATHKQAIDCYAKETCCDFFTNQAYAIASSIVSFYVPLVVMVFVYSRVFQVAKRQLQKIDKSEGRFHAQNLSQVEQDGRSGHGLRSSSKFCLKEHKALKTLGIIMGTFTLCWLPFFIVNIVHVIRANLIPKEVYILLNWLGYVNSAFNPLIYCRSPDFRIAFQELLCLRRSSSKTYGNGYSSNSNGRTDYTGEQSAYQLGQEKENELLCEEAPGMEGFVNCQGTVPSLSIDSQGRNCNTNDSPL

Row | Compound | ARL (relative affinity for beta2-adrenergic receptors, 100 CD/CX) [1] | LD0 (maximum dose not causing any mortality in 8 days) [2] | IC50 [3] | ARL (relative affinity for beta1-adrenergic receptors) [4] | change in vivo at 1 mg/kg [5, 7] | change in vivo at 2.5 mg/kg [5, 7] | change in vivo at 5 mg/kg [5, 7] | change in vivo at 2.5 mg/kg [5, 8] | change in vivo at 5 mg/kg [5, 8] | change in vivo at 10 mg/kg [5, 8] | variation of the arterial blood pressure, 5 mins after administration ([6]; 5 min) | variation of the arterial blood pressure, 30 min. after administration ([6]; 30 min)
1 | CCC(C)(C)NCC(O)COc1ccccc1C(=O)Nc1cccc2[nH]ccc12 (centres unmarked) [Example 28, 2-[3-[(1,1-dimethylpropyl)amino]-2-hydroxypropoxy]-N-(1H-indol-4-yl) benzamide] | 15% | > 400 mg/kg | 2.5 µM | 28% | 14% | 54% | 95% | – | – | – | – | –
2 | Cn1ccc2c(NC(=O)c3ccccc3OCC(O)CNC(C)(C)C)cccc21 (centres unmarked) [Example 34, 2-[3-[1,1-Dimethylethylamino]-2-hydroxypropoxy]-N-(1-methyl-1H-indol-4-yl) benzamide] | 81% | 80 mg/kg | 8.8 µM | 44% | – | – | – | 12% | 43% | 125% | – | –
3 | CC(C)(C)NCC(O)COc1ccccc1C(=O)Nc1cccc2[nH]ccc12 (centres unmarked) [Example 17, 2-[3-[(1,1-dimethylethyl)amino]-2-hydroxypropoxy]-N-(1H-indol-4-yl) benzamide benzoate] | – | – | – | – | – | – | – | – | – | – | -55 percentage | -13 percentage
4 | CCC(C)(C)NCC(O)COc1ccccc1C(=O)Nc1cccc2[nH]ccc12.O=C(O)c1ccccc1 (centres unmarked) [Example 48, 2-[3-[(1,1-Dimethylpropyl)amino]-2-hydroxypropoxy]-N-(1H-indol-4-yl)benzamide benzoate] | 27% | – | – | 20% | – | – | – | 53% | 79% | – | – | –
